Data reported in PMC3583015 (Drug metabolism reviews, 2013).
Changes are numbered by the printed parent chain.

Key:
[1] = tested on: PXR; conditions: ref Poulton et al., 2012; cited from earlier work
[2] = tested on: PXR LBD; conditions: ref Xue et al., 2007; cited from earlier work
[3] = molecular target: T1, Q272H PXR (Homo sapiens, UniProt O75469, Q272H); assay: yeast two-hybrid screen of PXR mutants; assay type: cell-based; conditions: Q272H mutation at the surface AF-2 site
T1 sequence (O75469 1-434 Q272H): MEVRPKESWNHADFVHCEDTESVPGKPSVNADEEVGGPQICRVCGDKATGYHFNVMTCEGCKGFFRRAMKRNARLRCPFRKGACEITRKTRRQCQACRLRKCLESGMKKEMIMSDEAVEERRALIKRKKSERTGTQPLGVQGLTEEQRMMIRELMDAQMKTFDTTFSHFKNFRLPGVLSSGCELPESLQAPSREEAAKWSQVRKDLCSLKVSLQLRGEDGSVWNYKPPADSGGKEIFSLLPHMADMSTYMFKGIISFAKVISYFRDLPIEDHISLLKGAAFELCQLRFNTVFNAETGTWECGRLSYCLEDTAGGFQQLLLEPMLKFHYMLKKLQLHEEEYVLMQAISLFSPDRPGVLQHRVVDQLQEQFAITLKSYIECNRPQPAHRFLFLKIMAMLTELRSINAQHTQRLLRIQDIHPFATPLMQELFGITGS

[4] = tested on: constitutively active pocket-filling mutants of PXR; assay: antagonism of constitutively active pocket-filling mutants of PXR; assay type: cell-based; conditions: double and triple mutant forms
[5] = molecular target: T2, PXR (Homo sapiens, UniProt O75469); conditions: sustained for at least 48–72 hours; ref Fuchs et al., 2012; cited from earlier work
T2 sequence (O75469 1-434): T1 sequence (O75469 1-434 Q272H) with H272Q

[6] = tested on: T248E/K277Q form of PXR; conditions: ref Wang et al., 2007; cited from earlier work

C[S+]([O-])CCCCN=C=S (stereo not drawn) [sulphoraphane, sulforaphane]
effect in a humanized PXR mouse model [1]: absence of effect

O=S(=O)(c1ccccc1)N(CC(F)(F)F)c1ccc(C(O)(C(F)(F)F)C(F)(F)F)cc1 [T1317, T0901317]
Kd [2]: 11 nM

CC(=O)N1CCN(c2ccc(OCC3COC(Cn4ccnc4)(c4ccc(Cl)cc4Cl)O3)cc2)CC1 (stereo not drawn) [ketoconazole]
sensitivity of Q272H PXR to the antagonist [3]: insensitive
antagonism of constitutively active pocket-filling PXR mutants [4]: still susceptible to antagonism
concentration needed to antagonize PXR activation in vivo [5]: > 10 µM
antagonism of double-mutant T248E/K277Q PXR [6]: not susceptible to antagonism
